{
  "source": "patent US20230025976A1",
  "about": "“PRMT5 Inhibitor for Use In A Method of Treating Psoriasis and Other Autoimmune Conditions” (Pfizer Inc., priority 2020, published 2023)",
  "tested_on": "psoriasis patient",
  "test": "Treatment of a psoriasis patient (case report, Example 1)",
  "assay_type": "in vivo, human",
  "conditions": "for Psoriasis symptoms, skin, front of torso / Psoriasis symptoms, skin, back of torso: psoriasis patient",
  "description": "They had chronic psoriatic lesions on the front and back sides of their torso. The lesions covered 75% of their body, and the patient had difficulty controlling these symptoms despite having used several different medications in the past. The psoriasis symptoms worsened after chemotherapy. The patient was treated with 1 mg of (1S,2S,3S,5R)-3-((6-(difluoromethyl)-5-fluoro-1,2,3,4-tetrahydroisoquinolin-8-yl) oxy)-5-(4-methyl-7H-pyrrolo[2,3-d]pyrimidin-7-yl)cyclopentane-1,2-diol orally twice a day, for four months. During the treatment period the patient was questioned about other medical conditions, if any, they were then experiencing. […] The patient discontinued treatment after four months, for reasons unrelated to their psoriasis. […] Photos taken after two and six weeks of treatment document the clearing of psoriasis symptoms. FIGS. 1 and 2 depict said clearing of psoriasis symptoms.",
  "data": [
    {"molecule": "Cc1ncnc2c1ccn2[C@@H]1C[C@H](Oc2cc(C(F)F)c(F)c3c2CNCC3)[C@@H](O)[C@H]1O", "note": "[(1S,2S,3S,5R)-3-((6-(difluoromethyl)-5-fluoro-1,2,3,4-tetrahydroisoquinolin-8-yl)oxy)-5-(4-methyl-7H-pyrrolo [2,3-d]pyrimidin-7-yl)cyclopentane-1,2-diol]", "values": [
      {"measurement": "Psoriatic skin lesions after cessation of treatment", "setting": "1 mg orally twice a day for four months, one month after cessation of treatment", "result": "remained in remission"},
      {"measurement": "Psoriatic skin lesions", "setting": "person, severe psoriasis, 1 mg orally twice a day, following six weeks treatment", "result": "significant clearing"},
      {"measurement": "Psoriatic skin lesions and related itching, patient-reported", "setting": "person, severe psoriasis, 1 mg orally twice a day, within one week of initiating treatment", "result": "improvement in their psoriatic skin lesions and a lessening of related itching"},
      {"measurement": "Psoriasis symptoms, skin, front of torso", "setting": "1 mg twice daily for six weeks, FIG. 1B", "result": "mild"},
      {"measurement": "Psoriasis symptoms, skin, back of torso", "setting": "1 mg twice daily for six weeks, FIG. 2B", "result": "mild"},
      {"measurement": "Psoriasis symptoms, skin, front of torso", "setting": "1 mg twice daily for two weeks, FIG. 1A", "result": "moderate"},
      {"measurement": "Psoriasis symptoms, skin, back of torso", "setting": "1 mg twice daily for two weeks, FIG. 2A", "result": "moderate"}
    ]}
  ]
}
